This is an account of results in PubChem BioAssay (NCI).

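Tested at 5 concentrations; 48 h exposure; 96-well plates; endpoints linearly interpolated, else capped at highest concentration. TGI: total growth inhibition.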

The test system of one assay is UACC-62 melanoma. As to the kind of experiment: growth of human tumour cells (NCI), 48 h.
In turn, `N#C/C(=C1\SC(N=Nc2ccc(Cl)cc2)C(=O)N1c1ccccc1)c1nc2ccccc2[nH]1` (stereo not given) returned a TGI of over 100 µM.

For `CCOC(=O)c1c(SCCN2CCOCC2)n(-c2ccccc2)c(=S)n(-c2ccccc2)c1=O`, the TGI is over 100 µM.

With `O=C(NN1C(=O)CSC1c1cccc(F)c1)c1ccncc1` (stereo not given), the TGI was over 100 µM.

`c1ccc2[nH]c(CNc3ccc(C4C[Se]N=N4)cc3)nc2c1` (stereo not given) had a TGI of 99 µM.

`Cc1c(-c2ccccc2)[nH]n(C2=NCCN2)c1=O` showed a TGI of over 100 µM.

`O=C(O)/C=C\C(=O)Nc1ccc(S(=O)(=O)c2ccc(NC(=O)/C=C\C(=O)O)cc2)cc1` yielded a TGI of over 100 µM.

The compound `S=C1NC2=C(CSC/C2=C\c2ccccc2)C(c2ccccc2)N1` (stereo not given) registered a TGI of over 100 µM.

`COc1ccc(/C=N/n2c(C)nc3c(sc(=S)n3-c3ccccc3)c2=O)cc1` had a TGI of over 100 µM.

For `CSc1nc2c(ncn2C2OC(CO)C(O)C(O)C2O)c(=O)[nH]1` (stereo not given), the TGI was over 100 µM.

Turning to `Nc1ccccc1C(=O)C(Br)C(Br)c1ccc2c(c1)OCO2` (stereo not given), the TGI was determined as 35.2 µM.

As to `CCCCCCCCCCCC1CC(=O)NCCCN(C)CCCCN(C)CCCN1C` (stereo not given), the TGI was 3.09 µM.

The compound `COc1cc(C2c3cc4c(cc3[C@@H](Nc3ccc5c(c3)OCO5)C3COC(=O)[C@H]23)OCO4)cc(OC)c1O` (stereo not given in full) displayed a TGI of 5.35 µM.

For another assay, the system named is NCI-H522 lung. The assay can be described thus: growth of human tumour cells (NCI), 48 h.
Regarding `N#C/C(=C1\SC(N=Nc2ccc(Cl)cc2)C(=O)N1c1ccccc1)c1nc2ccccc2[nH]1` (stereo not given), the TGI is 79.9 µM.

On to `CCOC(=O)c1c(SCCN2CCOCC2)n(-c2ccccc2)c(=S)n(-c2ccccc2)c1=O`, for which the TGI was over 100 µM.

Turning to `O=C(NN1C(=O)CSC1c1cccc(F)c1)c1ccncc1` (stereo not given), the TGI is over 100 µM.

The compound `c1ccc2[nH]c(CNc3ccc(C4C[Se]N=N4)cc3)nc2c1` (stereo not given) showed a TGI of over 100 µM.

Regarding `Cc1c(-c2ccccc2)[nH]n(C2=NCCN2)c1=O`, the TGI was over 100 µM.

For the compound `Cc1ccc2oc(=O)c(-c3ccccc3)nc2c1`, the TGI worked out at 48.7 µM.

For the compound `O=C(O)/C=C\C(=O)Nc1ccc(S(=O)(=O)c2ccc(NC(=O)/C=C\C(=O)O)cc2)cc1`, the TGI was over 100 µM.

In turn, `S=C1NC2=C(CSC/C2=C\c2ccccc2)C(c2ccccc2)N1` (stereo not given) gave a TGI of over 100 µM.

Compound `COc1ccc(/C=N/n2c(C)nc3c(sc(=S)n3-c3ccccc3)c2=O)cc1` registered a TGI of 46.4 µM.

The compound `CSc1nc2c(ncn2C2OC(CO)C(O)C(O)C2O)c(=O)[nH]1` (stereo not given) showed a TGI of over 100 µM.

The compound `Nc1ccccc1C(=O)C(Br)C(Br)c1ccc2c(c1)OCO2` (stereo not given) gave a TGI of 48.1 µM.

As to `CCCCCCCCCCCC1CC(=O)NCCCN(C)CCCCN(C)CCCN1C` (stereo not given), the TGI was 3.27 µM.

For `COc1cc(C2c3cc4c(cc3[C@@H](Nc3ccc5c(c3)OCO5)C3COC(=O)[C@H]23)OCO4)cc(OC)c1O` (stereo not given in full), the TGI is 4.49 µM.

Another assay concerns MDA-MB-435. As to the kind of experiment: growth of human tumour cells (NCI), 48 h.
`CCOC(=O)c1c(SCCN2CCOCC2)n(-c2ccccc2)c(=S)n(-c2ccccc2)c1=O` registered a TGI of over 100 µM.

`Cc1c(-c2ccccc2)[nH]n(C2=NCCN2)c1=O`: the TGI is over 100 µM.

A further assay concerns ACHN renal. As to the kind of experiment: growth of human tumour cells (NCI), 48 h.
As to `N#C/C(=C1\SC(N=Nc2ccc(Cl)cc2)C(=O)N1c1ccccc1)c1nc2ccccc2[nH]1` (stereo not given), the TGI is over 100 µM.

Compound `CCOC(=O)c1c(SCCN2CCOCC2)n(-c2ccccc2)c(=S)n(-c2ccccc2)c1=O` registered a TGI of over 100 µM.

`O=C(NN1C(=O)CSC1c1cccc(F)c1)c1ccncc1` (stereo not given) returned a TGI of over 100 µM.

`c1ccc2[nH]c(CNc3ccc(C4C[Se]N=N4)cc3)nc2c1` (stereo not given) returned a TGI of over 100 µM.

`Cc1c(-c2ccccc2)[nH]n(C2=NCCN2)c1=O` had a TGI of over 100 µM.

`Cc1ccc2oc(=O)c(-c3ccccc3)nc2c1` gave a TGI of over 100 µM.

The compound `O=C(O)/C=C\C(=O)Nc1ccc(S(=O)(=O)c2ccc(NC(=O)/C=C\C(=O)O)cc2)cc1` returned a TGI of over 100 µM.

As to `S=C1NC2=C(CSC/C2=C\c2ccccc2)C(c2ccccc2)N1` (stereo not given), the TGI is over 100 µM.

Consider `COc1ccc(/C=N/n2c(C)nc3c(sc(=S)n3-c3ccccc3)c2=O)cc1`, for which the TGI was over 100 µM.

Turning to `Nc1ccccc1C(=O)C(Br)C(Br)c1ccc2c(c1)OCO2` (stereo not given), the TGI came out at 51 µM.

`CCCCCCCCCCCC1CC(=O)NCCCN(C)CCCCN(C)CCCN1C` (stereo not given) returned a TGI of 3.08 µM.

In a further assay the test system is HOP-92 NSCLC. The assay can be described thus: growth of human tumour cells (NCI), 48 h.
`N#C/C(=C1\SC(N=Nc2ccc(Cl)cc2)C(=O)N1c1ccccc1)c1nc2ccccc2[nH]1` (stereo not given): the TGI was 51.9 µM.

Consider `CCOC(=O)c1c(SCCN2CCOCC2)n(-c2ccccc2)c(=S)n(-c2ccccc2)c1=O`, for which the TGI is over 100 µM.

The compound `c1ccc2[nH]c(CNc3ccc(C4C[Se]N=N4)cc3)nc2c1` (stereo not given) registered a TGI of over 100 µM.

`Cc1c(-c2ccccc2)[nH]n(C2=NCCN2)c1=O` gave a TGI of over 100 µM.

`O=C(O)/C=C\C(=O)Nc1ccc(S(=O)(=O)c2ccc(NC(=O)/C=C\C(=O)O)cc2)cc1` registered a TGI of over 100 µM.

Compound `S=C1NC2=C(CSC/C2=C\c2ccccc2)C(c2ccccc2)N1` (stereo not given) came in with a TGI of 97.4 µM.

With `COc1ccc(/C=N/n2c(C)nc3c(sc(=S)n3-c3ccccc3)c2=O)cc1`, the TGI was over 100 µM.

With `CSc1nc2c(ncn2C2OC(CO)C(O)C(O)C2O)c(=O)[nH]1` (stereo not given), the TGI is over 100 µM.

`Nc1ccccc1C(=O)C(Br)C(Br)c1ccc2c(c1)OCO2` (stereo not given): the TGI was 39.5 µM.

Compound `CCCCCCCCCCCC1CC(=O)NCCCN(C)CCCCN(C)CCCN1C` (stereo not given) displayed a TGI of 2.68 µM.

In turn, `COc1cc(C2c3cc4c(cc3[C@@H](Nc3ccc5c(c3)OCO5)C3COC(=O)[C@H]23)OCO4)cc(OC)c1O` (stereo not given in full) returned a TGI of 8.37 µM.

In the next assay the test system is DU-145 prostate. As to the kind of experiment: growth of human tumour cells (NCI), 48 h.
Take `S=C1NC2=C(CSC/C2=C\c2ccccc2)C(c2ccccc2)N1` (stereo not given): the TGI was over 100 µM.
